Results reported in patent US7226949B2, “Compounds of use in the treatment of epilepsy, seizure, and electroconvulsive disorders” (University of Kentucky, priority 2002, dated 2007).
Like-named read-outs stand apart in the source and are kept apart here.

Tests used:
[1] = test system: MES-induced seizure; test: Maximal Electroshock Seizure (MES) test in rats, oral administration; type: in vivo; conditions: for Percentage of rats in which the test compound prevented MES-induced seizure: 30 mg/kg oral; for Time to Peak Effect: MES test; for ED50: read-out: ED50 required to inhibit MES-induced seizure
Text: (§1) The Maximal Electroshock Seizure (MES) or Maximal Seizure Pattern Test
(§2) The MES is an experimental model for generalized tonic-clonic seizures that identifies compounds that prevent seizure spread. The MES model is highly reproducible and has a consistent endpoint. An advantage of this model is that the behavioral and electrographic seizures are consistent with those observed in humans.
(§3) In the MES test, the animal receives an electrical stimulus, 0.2 seconds in duration, via corneal electrodes primed with an electrolyte solution containing an anesthetic agent. The 0.2 second stimulation is generated with 150 mA in rats and 50 mA in mice at 60 Hz. […] In rats, the compound is administered orally, while mice receive the agent via intraperitoneal injection. The test endpoint, electrogenic seizure, is manifested as hindlimb tonic extension.
A full dose-response curve was also generated in rats to determine the ED50 value (n=8 at each time point). […] The ED50 of 4,4′-thiodianiline was evaluated in both rats and mice.

[2] = test system: mice; test: Minimal neurotoxicity in mice, rotorod test; conditions: for toxicity: 100 mg/kg
Description: In mice, the test compound is administered at doses of 30, and 100 mg/kg prior to evaluation in the toxicity screens. The mice are tested at 0.5 hours and 4 hours after intraperitoneal administration of the test compound.
Toxicity in mice weighing between 18 and 25.5 g is assessed using the standardized rotorod test [9]. For each compound tested, a minimum of 18 animals are evaluated for neurotoxicity. Control mice can maintain their equilibrium for an extended period of time when they are placed on a 6-rpm rotation rod. Neurologically impaired animals cannot maintain equilibrium for one minute in each of three successive trials.

[3] = test system: MES-induced seizure; test: Maximal Electroshock Seizure (MES) test in mice, intraperitoneal administration; type: in vivo
Text: as §1, §2, §3

[4] = test system: rats; test: Minimal neurotoxicity in rats, positional sense and gait and stance tests; type: in vivo; conditions: for toxicity: 250 mg/kg
Text: If the rat experiences neurological toxicity, it will not be able to quickly lift its leg quickly back to a normal position.
In the gait and stance test, neurotoxicity is indicated by a circular or zigzag gait after administration of the test compound. In addition, ataxia, abnormal spread of the legs, abnormal posture, tremor hyperactivity, lack of exploratory behavior, somnolence, stupor, or catalepsy can indicate neurotoxicity.

[5] = test system: focal seizures in hippocampal kindled rats; test: Hippocampal kindling model; type: in vivo, Sprague-Dawley rats; conditions: hippocampal kindling model; not as effective as 4,4′-thiodianiline
Text: Hippocampal Kindling Model
The hippocampal kindling model is an experimental seizure model used to simulate focal seizures. This model evaluates the capacity of a compound to affect both the expression and acquisition of focal seizures. In addition, kindled seizures provide a methodology for studying complex brain networks that may contribute to the spread and generalizations of seizures from a focus. The hippocampal kindling model has the advantage of being one of the only kindling models that can evaluate the temporal effects of an agent in a single animal. For this assessment, bipolar electrodes are surgically implanted in the ventral hippocampus of adult male Sprague-Dawley rats (275-300 g) under ketamine-xylazine anesthesia. Following a one-week recovery period, stage five behavioral seizures are induced by stimulating the rat 12 times per day with 50 Hz, 10 s train of 1 ms biphasic 200 μA pulses delivered every 30 min for six hours on alternating days. After five stimulus days, the animal has had 60 stimulations. A drug free control period with supramaximal stimulations is used to verify the stability of a stage five generalized seizure before the anticonvulsant activity of a drug is measured.
This screen is used to measure the capacity of the drug to prevent the expression of focal seizures. […] The animal is exposed to an initial stimulation of 20 μA; the stimulation is increased in 10 μA increments every one-two minutes until an afterdischarge is recorded. After the stability of the stage five seizure is established, the drug candidate is administered to the rats via intraperitoneal injection 15 minutes after the last control stimulation. Starting with the first dose, the anticonvulsant activity of the test agent is measured every thirty minutes for four hours. Following each stimulation, Racine seizure scores and afterdischarge durations are compared to control values to quantify the anti-convulsant activity of the agent. The Racine seizure scores vary from stage 1 to 5. The stages are characterized according to the following criteria: Stage 1—mouth and facial clonus, Stage 2—stage 1 and head nodding, Stage 3—stage 2 and forelimb clonus, Stage 4—stage 3 and rearing, Stage 5—stage 4 and repeated rearing and falling. Since a single animal is used, each rat serves as its own control.
4,4′-Thiodianiline was used in the rat hippocampal kindled rats to screen to measure its anticonvulsant potential. Doses of 12.5, 25, 50 and 100 mg/kg were evaluated at a minimum of seven time points (n=7 for each dose and each time point). […] After oral administration of the test compound stimulation, the Racine seizure scores and afterdischarge durations were measured and are shown below. The Racine seizure scores dropped from between a stage 4 and stage 5 seizure for control measurements to between a stage 1 and stage 2 seizure after treatment with 4,4′-thiodianiline.

[6] = test system: 6 Hz seizures; test: 6 Hz kindling model; type: in vivo, mice
Description: The 6 Hz kindling model is another experimental seizure model that effectively detects compounds with anti-seizure activity. This screen is used to evaluate the ability of a compound to prevent the acquisition of focal seizures; in particular, the capacity of a compound to prevent the development of seizures induced by a low-frequency (6 Hz), long duration (three seconds) stimulus in electrode […] is evaluated. Several of the most promising compounds were evaluated in this screen to further characterize their anti-seizure activity.
In the 6 Hz kindling test, mice are implanted with corneal electrodes. The test compound is administered (i.p.) to the animal at 0.25, 0.5, 1, 2, or 4 hours prior seizure induction. The seizure is initiated by delivering a current (32 mA at 6 Hz for three seconds) to the animal through the corneal electrodes. The resulting psychomotor seizure is usually characterized by a minimal clonic phase followed by stereotyped, automatistic behaviors. This response is analogous to the aura of human patients with partial seizures.

[7] = rat, oral administration, at the time of peak effect, n=8
[8] = 30 mg/kg i.p., 0.5 h after administration
[9] = 30 mg/kg i.p., 4.0 h after administration
[10] = 100 mg/kg i.p., 0.5 h after administration
[11] = 100 mg/kg i.p., 4.0 h after administration
[12] = 300 mg/kg i.p., 0.5 h after administration
[13] = 300 mg/kg i.p., 4.0 h after administration
[14] = 30 mg/kg i.p., 0.25 h after administration
[15] = 30 mg/kg i.p., 1.0 h after administration
[16] = 100 mg/kg i.p., 0.25 h after administration
[17] = 100 mg/kg i.p., 1.0 h after administration
[18] = 100 mg/kg i.p., 2.0 h after administration

Row | Structure (SMILES) | Percentage of rats in which the test compound prevented MES-induced seizure ([1]; 0.25 h after administration) | Percentage of rats in which the test compound prevented MES-induced seizure ([1]; 0.5 h after administration) | Percentage of rats in which the test compound prevented MES-induced seizure ([1]; 1.0 h after administration) | Percentage of rats in which the test compound prevented MES-induced seizure ([1]; 2.0 h after administration) | Percentage of rats in which the test compound prevented MES-induced seizure ([1]; 4.0 h after administration) | Time to Peak Effect ([1]; rat, oral administration) | ED50 [1, 7] | toxicity [2] | Percentage of mice in which the test compound prevented MES-induced seizure [3, 8] | Percentage of mice in which the test compound prevented MES-induced seizure [3, 9] | Percentage of mice in which the test compound prevented MES-induced seizure [3, 10] | Percentage of mice in which the test compound prevented MES-induced seizure [3, 11] | Percentage of mice in which the test compound prevented MES-induced seizure [3, 12] | Percentage of mice in which the test compound prevented MES-induced seizure [3, 13] | toxicity [4] | Percentage of mice in which the test compound prevented seizure in the 6 Hz test [6, 14] | Percentage of mice in which the test compound prevented seizure in the 6 Hz test [6, 8] | Percentage of mice in which the test compound prevented seizure in the 6 Hz test [6, 15] | Percentage of mice in which the test compound prevented seizure in the 6 Hz test [6, 16] | Percentage of mice in which the test compound prevented seizure in the 6 Hz test [6, 10] | other results
1 | Nc1ccc(Nc2cccc(N)c2)cc1 [(3-aminophenyl)-(4-aminophenyl) amine] | 0% | 50% | 75% | 50% | 50% | 2 h | 31.7 ± 24.4 mg/kg | no significant toxicity | 0% | 0% | 100% | 100% | 100% | 100% | no significant toxicity | – | – | – | – | – | –
2 | Nc1ccc(NC(=O)c2ccc(N)cc2)cc1 [4,4′-Diaminobenzanalide] | – | – | – | – | – | – | – | – | – | – | – | – | – | – | – | – | – | – | – | – | expression of fully kindled seizures [5]: had the capacity to block the expression of fully kindled seizures
3 | Nc1ccc(C(=O)c2ccc(N)cc2)cc1 [4,4′-diaminobenzophenone] | 50% | 100% | 75% | 100% | 75% | 1 h | 7.15 mg/kg | – | 0% | 0% | 100% | 100% | 100% | 100% | – | 0% | 0% | 0% | 100% | 100% | Percentage of mice in which the test compound prevented seizure in the 6 Hz test [6, 17]: 100%; Percentage of mice in which the test compound prevented seizure in the 6 Hz test [6, 18]: 0%; Percentage of mice in which the test compound prevented seizure in the 6 Hz test [6, 11]: 0%; neurotoxicity ([2]; doses below 100 mg/kg): showed no neurotoxicity; acute neurotoxic effects ([4]; 0.25 to 24 hours after oral administration, doses as high as 500 mg/kg): None of the rats tested at any timepoints
4 | Nc1ccc(Cc2ccc(N)cc2)cc1 [4,4′-methylenedianiline] | 100% | 75% | 92% | 100% | 50% | 1 h | – | no significant toxicity | 0% | 0% | 100% | 0% | 100% | 100% | no significant toxicity | 0% | 0% | 0% | 100% | 100% | ED50 ([1]; Rattus norvegicus, po): 10.6 ± 5.88 mg/kg; Percentage of mice in which the test compound prevented seizure in the 6 Hz test [6, 17]: 100%; Percentage of mice in which the test compound prevented seizure in the 6 Hz test [6, 18]: 0%; Percentage of mice in which the test compound prevented seizure in the 6 Hz test [6, 11]: 0%
